Measured values as given in ChEMBL document CHEMBL4028801, “A multifactorial approach to hepatobiliary transporter assessment enables improved therapeutic compound development” (Toxicol Sci, 2013).
One block for each compound: values may come before it.

Experiments:
[1] = target: ATP-binding cassette sub-family C member 3 (Homo sapiens, UniProt O15438); test: Inhibition of human MRP3 overexpressed in Sf9 insect cell membrane vesicles assessed as uptake of [3H]-estradiol-17beta-D-glucuronide in presence of ATP and GSH measured after 10 mins by membrane vesicle transport assay; format: ADME, cell-based
ATP-binding cassette sub-family C member 3, sequence (O15438 whole entry): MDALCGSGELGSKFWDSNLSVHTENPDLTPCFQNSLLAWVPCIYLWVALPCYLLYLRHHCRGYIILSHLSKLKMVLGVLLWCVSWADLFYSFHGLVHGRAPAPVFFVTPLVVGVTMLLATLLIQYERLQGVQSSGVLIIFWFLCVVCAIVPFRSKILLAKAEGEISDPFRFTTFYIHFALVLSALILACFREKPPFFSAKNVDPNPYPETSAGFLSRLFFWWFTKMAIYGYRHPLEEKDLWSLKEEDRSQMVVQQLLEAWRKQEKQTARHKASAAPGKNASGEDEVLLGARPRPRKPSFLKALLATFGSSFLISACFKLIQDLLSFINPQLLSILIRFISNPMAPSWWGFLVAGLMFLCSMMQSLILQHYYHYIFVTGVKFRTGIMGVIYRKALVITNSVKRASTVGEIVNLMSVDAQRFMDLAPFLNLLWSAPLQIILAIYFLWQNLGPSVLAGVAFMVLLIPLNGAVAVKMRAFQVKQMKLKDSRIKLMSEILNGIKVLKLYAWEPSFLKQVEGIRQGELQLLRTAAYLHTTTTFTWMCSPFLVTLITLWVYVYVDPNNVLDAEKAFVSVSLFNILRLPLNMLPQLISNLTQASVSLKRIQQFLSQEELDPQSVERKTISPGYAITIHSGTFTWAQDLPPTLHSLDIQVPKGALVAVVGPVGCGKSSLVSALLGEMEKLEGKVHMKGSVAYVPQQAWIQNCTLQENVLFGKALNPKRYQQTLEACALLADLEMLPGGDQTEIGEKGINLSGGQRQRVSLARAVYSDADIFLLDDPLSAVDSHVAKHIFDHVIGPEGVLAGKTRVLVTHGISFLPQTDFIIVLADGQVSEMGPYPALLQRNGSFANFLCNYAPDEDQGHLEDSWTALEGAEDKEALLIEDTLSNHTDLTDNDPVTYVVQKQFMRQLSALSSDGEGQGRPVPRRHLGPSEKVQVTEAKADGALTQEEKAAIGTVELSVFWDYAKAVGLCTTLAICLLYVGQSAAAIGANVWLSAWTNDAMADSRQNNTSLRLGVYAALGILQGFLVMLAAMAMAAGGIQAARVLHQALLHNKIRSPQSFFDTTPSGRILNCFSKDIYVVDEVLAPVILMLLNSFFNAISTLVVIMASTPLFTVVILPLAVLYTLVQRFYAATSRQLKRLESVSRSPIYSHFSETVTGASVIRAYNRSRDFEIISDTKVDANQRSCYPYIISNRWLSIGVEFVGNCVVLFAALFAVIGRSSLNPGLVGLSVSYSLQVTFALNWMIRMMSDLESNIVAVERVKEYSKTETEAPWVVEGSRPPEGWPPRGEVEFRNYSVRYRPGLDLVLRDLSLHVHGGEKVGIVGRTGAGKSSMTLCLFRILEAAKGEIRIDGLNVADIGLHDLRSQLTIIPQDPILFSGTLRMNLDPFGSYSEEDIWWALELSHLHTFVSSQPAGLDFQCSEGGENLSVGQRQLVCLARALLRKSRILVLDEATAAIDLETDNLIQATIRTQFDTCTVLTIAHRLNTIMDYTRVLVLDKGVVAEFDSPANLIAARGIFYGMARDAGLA

[2] = AUC in human at 250 to 500 mg, po QD after 24 hrs; format: ADME, organism-based; conditions: in vivo
[3] = target: ATP-binding cassette sub-family C member 2 (Homo sapiens, UniProt Q92887); test: Inhibition of human MRP2 overexpressed in Sf9 cell membrane vesicles assessed as uptake of [3H]-estradiol-17beta-D-glucuronide in presence of ATP and GSH measured after 20 mins by membrane vesicle transport assay
ATP-binding cassette sub-family C member 2, sequence (Q92887 whole entry): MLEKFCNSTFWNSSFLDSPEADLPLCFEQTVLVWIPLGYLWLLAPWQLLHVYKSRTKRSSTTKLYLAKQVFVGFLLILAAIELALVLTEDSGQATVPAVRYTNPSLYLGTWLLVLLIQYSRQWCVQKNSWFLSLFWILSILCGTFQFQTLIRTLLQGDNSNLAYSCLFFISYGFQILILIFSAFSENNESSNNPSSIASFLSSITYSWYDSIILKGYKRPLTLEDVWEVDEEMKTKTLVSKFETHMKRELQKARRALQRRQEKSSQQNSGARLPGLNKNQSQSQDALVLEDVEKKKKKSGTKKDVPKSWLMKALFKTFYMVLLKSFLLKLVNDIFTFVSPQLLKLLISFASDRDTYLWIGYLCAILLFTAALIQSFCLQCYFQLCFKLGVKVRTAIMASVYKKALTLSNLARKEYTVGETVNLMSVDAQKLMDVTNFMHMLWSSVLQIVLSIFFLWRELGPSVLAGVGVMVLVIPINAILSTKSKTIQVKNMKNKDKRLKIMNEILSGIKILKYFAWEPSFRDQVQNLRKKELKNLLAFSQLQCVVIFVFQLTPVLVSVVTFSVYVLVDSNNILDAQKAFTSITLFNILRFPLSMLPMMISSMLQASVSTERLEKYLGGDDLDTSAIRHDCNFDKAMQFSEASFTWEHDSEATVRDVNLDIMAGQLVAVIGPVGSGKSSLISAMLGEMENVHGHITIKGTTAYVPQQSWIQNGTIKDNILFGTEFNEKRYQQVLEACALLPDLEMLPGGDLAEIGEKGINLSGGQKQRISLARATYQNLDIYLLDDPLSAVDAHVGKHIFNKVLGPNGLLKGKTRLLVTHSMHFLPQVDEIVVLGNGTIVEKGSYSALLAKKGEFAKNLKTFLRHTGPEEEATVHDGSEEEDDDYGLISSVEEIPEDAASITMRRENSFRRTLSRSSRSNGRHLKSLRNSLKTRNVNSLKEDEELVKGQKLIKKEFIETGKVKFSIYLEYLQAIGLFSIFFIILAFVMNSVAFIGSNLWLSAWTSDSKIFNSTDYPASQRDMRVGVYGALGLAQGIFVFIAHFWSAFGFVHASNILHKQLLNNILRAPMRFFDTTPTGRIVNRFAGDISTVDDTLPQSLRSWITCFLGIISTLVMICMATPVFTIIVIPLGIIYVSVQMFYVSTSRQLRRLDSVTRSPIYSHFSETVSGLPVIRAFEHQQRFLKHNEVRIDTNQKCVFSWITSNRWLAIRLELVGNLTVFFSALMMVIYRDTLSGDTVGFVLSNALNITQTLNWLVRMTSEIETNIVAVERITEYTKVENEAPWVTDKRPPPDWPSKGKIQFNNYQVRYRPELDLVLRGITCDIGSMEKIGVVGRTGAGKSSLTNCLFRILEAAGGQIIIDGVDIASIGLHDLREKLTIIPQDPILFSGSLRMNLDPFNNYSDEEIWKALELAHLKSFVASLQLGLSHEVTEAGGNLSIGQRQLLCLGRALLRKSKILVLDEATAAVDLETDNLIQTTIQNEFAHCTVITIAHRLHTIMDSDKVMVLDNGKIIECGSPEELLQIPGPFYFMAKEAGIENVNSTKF

[4] = AUC in human at 50 mg, po QD after 24 hrs; format: ADME, organism-based; parameters: dose 50 mg, time < 24 hr, route oral; conditions: in vivo
[5] = Ratio of drug concentration at steady state in human at 50 mg, po QD after 24 hrs to IC50 for human BSEP overexpressed in Sf9 insect cells; format: ADME, organism-based; conditions: in vivo
[6] = Ratio of drug concentration at steady state in human at 50 mg, po QD after 24 hrs to IC50 for human MRP4 overexpressed in Sf9 insect cells; format: ADME, organism-based; conditions: in vivo
[7] = Ratio of drug concentration at steady state in human at 50 mg, po QD after 24 hrs to IC50 for human MRP2 overexpressed in Sf9 insect cells; format: ADME, organism-based; conditions: in vivo
[8] = Ratio of drug concentration at steady state in human at 50 mg, po QD after 24 hrs to IC50 for human MRP3 overexpressed in Sf9 insect cells; format: ADME, organism-based; conditions: in vivo
[9] = target: Bile salt export pump (Homo sapiens, UniProt O95342); test: Inhibition of human BSEP overexpressed in Sf9 cell membrane vesicles assessed as uptake of [3H]-taurocholate in presence of ATP measured after 15 to 20 mins by membrane vesicle transport assay; format: ADME, cell-based
Bile salt export pump, sequence (O95342 whole entry): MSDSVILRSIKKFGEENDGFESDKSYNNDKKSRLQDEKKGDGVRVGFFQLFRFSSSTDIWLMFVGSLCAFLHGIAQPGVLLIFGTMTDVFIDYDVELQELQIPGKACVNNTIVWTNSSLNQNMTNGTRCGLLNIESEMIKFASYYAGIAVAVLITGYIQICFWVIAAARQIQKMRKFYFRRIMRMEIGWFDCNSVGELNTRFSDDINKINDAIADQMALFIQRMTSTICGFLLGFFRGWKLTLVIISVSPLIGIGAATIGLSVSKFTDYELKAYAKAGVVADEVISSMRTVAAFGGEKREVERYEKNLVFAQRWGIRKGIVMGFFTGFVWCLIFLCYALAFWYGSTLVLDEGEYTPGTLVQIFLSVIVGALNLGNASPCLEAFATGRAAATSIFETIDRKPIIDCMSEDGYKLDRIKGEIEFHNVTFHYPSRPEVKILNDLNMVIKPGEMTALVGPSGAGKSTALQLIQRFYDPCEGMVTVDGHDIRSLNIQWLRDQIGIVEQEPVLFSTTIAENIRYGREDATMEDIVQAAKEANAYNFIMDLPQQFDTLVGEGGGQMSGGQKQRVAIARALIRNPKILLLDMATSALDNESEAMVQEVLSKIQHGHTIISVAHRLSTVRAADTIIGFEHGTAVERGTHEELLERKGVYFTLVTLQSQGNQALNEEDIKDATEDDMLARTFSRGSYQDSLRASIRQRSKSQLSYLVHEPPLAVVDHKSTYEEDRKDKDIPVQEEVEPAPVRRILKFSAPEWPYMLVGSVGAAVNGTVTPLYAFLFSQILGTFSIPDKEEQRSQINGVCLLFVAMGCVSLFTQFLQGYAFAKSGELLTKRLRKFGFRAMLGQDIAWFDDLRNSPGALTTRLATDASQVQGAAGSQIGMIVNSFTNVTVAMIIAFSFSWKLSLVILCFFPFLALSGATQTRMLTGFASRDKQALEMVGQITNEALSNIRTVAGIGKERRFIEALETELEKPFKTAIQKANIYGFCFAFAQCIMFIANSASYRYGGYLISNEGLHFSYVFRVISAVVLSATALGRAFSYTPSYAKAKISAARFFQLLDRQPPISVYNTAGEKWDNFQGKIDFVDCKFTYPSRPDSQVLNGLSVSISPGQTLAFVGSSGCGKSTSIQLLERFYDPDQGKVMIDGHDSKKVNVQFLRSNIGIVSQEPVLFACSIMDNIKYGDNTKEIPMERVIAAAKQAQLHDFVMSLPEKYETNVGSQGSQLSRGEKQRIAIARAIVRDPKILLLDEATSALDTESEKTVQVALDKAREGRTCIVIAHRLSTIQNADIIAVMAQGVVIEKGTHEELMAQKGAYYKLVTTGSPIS

[10] = Drug concentration at steady state in human at 50 mg, po QD after 24 hrs; format: ADME, organism-based; conditions: in vivo, read-out: Css
[11] = target: T1, ATP-binding cassette sub-family C member 4 (Homo sapiens, UniProt O15439); test: Inhibition of human MRP4 overexpressed in Sf9 cell membrane vesicles assessed as uptake of [3H]-estradiol-17beta-D-glucuronide in presence of ATP and GSH measured after 20 mins by membrane vesicle transport assay; format: ADME, cell-based
T1 sequence (O15439 whole entry): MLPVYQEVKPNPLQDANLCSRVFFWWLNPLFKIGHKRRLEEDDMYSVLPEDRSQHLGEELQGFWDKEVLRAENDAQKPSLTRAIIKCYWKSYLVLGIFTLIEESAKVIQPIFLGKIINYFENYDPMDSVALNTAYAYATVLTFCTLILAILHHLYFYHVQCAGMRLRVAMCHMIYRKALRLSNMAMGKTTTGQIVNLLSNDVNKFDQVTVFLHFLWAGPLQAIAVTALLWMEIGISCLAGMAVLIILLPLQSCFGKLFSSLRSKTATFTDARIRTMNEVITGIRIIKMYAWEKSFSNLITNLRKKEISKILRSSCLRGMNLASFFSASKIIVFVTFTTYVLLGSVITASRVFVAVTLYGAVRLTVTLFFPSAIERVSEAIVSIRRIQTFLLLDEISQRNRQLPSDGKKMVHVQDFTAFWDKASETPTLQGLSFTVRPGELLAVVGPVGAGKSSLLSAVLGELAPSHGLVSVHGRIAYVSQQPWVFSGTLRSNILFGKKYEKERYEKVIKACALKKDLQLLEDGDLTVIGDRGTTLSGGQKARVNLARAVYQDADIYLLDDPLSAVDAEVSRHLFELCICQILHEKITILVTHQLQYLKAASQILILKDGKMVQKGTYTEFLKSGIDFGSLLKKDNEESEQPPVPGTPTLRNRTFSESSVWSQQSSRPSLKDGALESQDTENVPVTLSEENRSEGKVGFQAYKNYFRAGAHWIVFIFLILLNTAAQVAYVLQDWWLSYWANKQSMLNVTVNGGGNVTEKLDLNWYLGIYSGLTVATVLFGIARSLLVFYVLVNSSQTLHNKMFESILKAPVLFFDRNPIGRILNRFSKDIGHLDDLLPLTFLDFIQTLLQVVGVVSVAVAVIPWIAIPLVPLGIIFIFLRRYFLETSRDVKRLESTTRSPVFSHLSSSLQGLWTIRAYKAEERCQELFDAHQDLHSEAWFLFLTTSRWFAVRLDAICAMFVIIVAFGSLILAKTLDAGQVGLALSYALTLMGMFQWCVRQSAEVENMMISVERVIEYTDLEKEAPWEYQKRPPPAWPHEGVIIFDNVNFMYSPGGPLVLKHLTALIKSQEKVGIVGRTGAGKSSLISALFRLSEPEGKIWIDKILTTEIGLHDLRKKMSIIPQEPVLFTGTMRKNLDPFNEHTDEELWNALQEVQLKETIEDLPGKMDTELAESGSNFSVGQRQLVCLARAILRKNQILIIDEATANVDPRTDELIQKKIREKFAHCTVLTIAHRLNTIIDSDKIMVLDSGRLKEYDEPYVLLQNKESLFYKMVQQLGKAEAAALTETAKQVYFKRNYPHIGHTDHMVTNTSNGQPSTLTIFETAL

[12] = Ratio of drug concentration at steady state in human at 100 to 400 mg, po BID after 12 hrs to IC50 for human BSEP overexpressed in Sf9 insect cells; format: ADME, organism-based; conditions: in vivo
[13] = Drug concentration at steady state in human at 1 to 4 mg, po QD after 24 hrs; format: ADME, organism-based; conditions: in vivo, read-out: Css
[14] = Ratio of drug concentration at steady state in human at 1 to 4 mg, po QD after 24 hrs to IC50 for human MRP4 overexpressed in Sf9 insect cells; format: ADME, organism-based; conditions: in vivo
[15] = Ratio of drug concentration at steady state in human at 1 to 4 mg, po QD after 24 hrs to IC50 for human BSEP overexpressed in Sf9 insect cells; format: ADME, organism-based; conditions: in vivo
[16] = Ratio of drug concentration at steady state in human at 1 to 4 mg, po QD after 24 hrs to IC50 for human MRP3 overexpressed in Sf9 insect cells; format: ADME, organism-based; conditions: in vivo
[17] = AUC in human at 1 to 4 mg, po QD after 24 hrs; format: ADME, organism-based; conditions: in vivo
[18] = system: Homo sapiens; test: Ratio of drug concentration at steady state in human at 0.25 to 20 mg, po after 24 hrs to IC50 for human MRP3 overexpressed in Sf9 insect cells; format: ADME, organism-based; conditions: in vivo
[19] = system: Homo sapiens; test: Ratio of drug concentration at steady state in human at 0.25 to 20 mg, po after 24 hrs to IC50 for human BSEP overexpressed in Sf9 insect cells; format: ADME, organism-based; conditions: in vivo
[20] = AUC in human at 0.25 to 20 mg, po QD after 24 hrs; format: ADME, organism-based; conditions: in vivo
[21] = system: Homo sapiens; test: Ratio of drug concentration at steady state in human at 0.25 to 20 mg, po after 24 hrs to IC50 for human MRP2 overexpressed in Sf9 insect cells; format: ADME, organism-based; conditions: in vivo
[22] = Drug concentration at steady state in human at 0.25 to 20 mg, po QD after 24 hrs; format: ADME, organism-based; conditions: in vivo, read-out: Css
[23] = system: Homo sapiens; test: Ratio of drug concentration at steady state in human at 0.25 to 20 mg, po after 24 hrs to IC50 for human MRP4 overexpressed in Sf9 insect cells; format: ADME, organism-based; conditions: in vivo

Structure (SMILES): COc1cc2ncnc(Nc3ccc(F)c(Cl)c3)c2cc1OCCCN1CCOCC1 [GEFITINIB]
IC50 [1]: > 133 µM | AUC at 24 h [2]: 5.38 µM·h | IC50 [3]: > 133 µM

Structure (SMILES): CC(/C=C1\SC(=S)N(CC(=O)O)C1=O)=C\c1ccccc1
AUC at 24 h [4]: 20 µM·h | IC50 [1]: 45.8 µM | Ratio [5]: 0.01 | Ratio [6]: 0.128 | Ratio [7]: 0.01 | IC50 [3]: 84.4 µM | Ratio [8]: 0.018 | IC50 [9]: 36.8 µM | concentration at 24 h [10]: 835 nM | IC50 [11]: 6.5 µM

Structure (SMILES): COCC1=C(C(=O)OC(C)OC(=O)OC(C)C)N2C(=O)[C@@H](NC(=O)/C(=N\OC)c3csc(N)n3)[C@H]2SC1 (stereo not given in full) [CEFPODOXIME PROXETIL]
IC50 [1]: > 133 µM | IC50 [3]: > 133 µM | Ratio [12]: 0.022 | IC50 [9]: 81.7 µM | IC50 [11]: > 133 µM

Second part, led by results:

IC50 [1]: 6.39 µM | concentration at 24 h [13]: 141 nM | Ratio [14]: 0.002 | Ratio [16]: 0.022 | AUC at 24 h [17]: 3.4 µM·h | IC50 [11]: 64 µM
Structure (SMILES): CCC1=C(C)CN(C(=O)NCCc2ccc(S(=O)(=O)NC(=O)N[C@H]3CC[C@H](C)CC3)cc2)C1=O [GLIMEPIRIDE]
Ratio [15]: 0.009

IC50 [1]: 84 µM | Ratio [18]: 0 | AUC at 24 h [20]: 0.561 µM·h | IC50 [3]: 11.3 µM | Ratio [21]: 0.002 | concentration at 24 h [22]: 23 nM | Ratio [23]: 0 | IC50 [11]: 95 µM
Structure (SMILES): CO[C@H]1C[C@@H]2CC[C@@H](C)[C@@](O)(O2)C(=O)C(=O)N2CCCC[C@H]2C(=O)O[C@H]([C@H](C)C[C@@H]2CC[C@@H](OCCO)[C@H](OC)C2)CC(=O)[C@H](C)/C=C(\C)[C@@H](O)[C@@H](OC)C(=O)[C@H](C)C[C@H](C)/C=C/C=C/C=C/1C [EVEROLIMUS]
Ratio [19]: 0.012 | IC50 [9]: 2 µM
